Results on 14 compounds are retold here after PubChem BioAssay (NCI).

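Step 1: Grow cells in 96-well plates. Step 2: Expose to compound for 48 hours at 5 concentrations. Step 3: Interpolate endpoints linearly; if unreached, use highest concentration. Abbreviation: GI50, concentration required for 50% inhibition of growth. TGI marks complete inhibition of growth.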 Some results are limits rather than exact numbers.

Experiment in all cases: inhibition of tumour cell growth, NCI panel, 48 h
Assay [1] has as its system MOLT-4 leukemia.
For assay [2], the system named is OVCAR-3 ovarian.
Assay [3] concerns SK-OV-3 ovarian.
The test system of assay [4] is MALME-3M melanoma.
Assay [5] deals with M14 melanoma.
Assay [6] concerns EKVX NSCLC.
Assay [7] has as its system KM12 colon.
The test system of assay [8] is SR leukemia.
For assay [9], the system named is LOX IMVI melanoma.

With `COC(=O)/C=C1/CCC2[C@@H](C(=O)CC3[C@]2(C)CCC[C@@]3(C)C(=O)OC)C1C` (stereo partly drawn), the TGI in assay [1] was determined as 19.1 µM; in assay [2], 20.4 µM; in assay [3], 51.6 µM; in assay [4], 34.8 µM; in [5], 29.1 µM; in assay [6] it was 42.3 µM. The TGI in assay [7] was found to be 27 µM.

Turning to `Cc1cc(O)cc2oc(=O)c3c(O)cc(O)cc3c12`, the TGI is 31.2 µM in assay [1]; greater than 100 µM in assay [8]; 58.4 µM in assay [2]; 48.1 µM in [9]; 45.5 µM in assay [3]; greater than 100 µM in assay [4]. The TGI is greater than 100 µM in assay [5], 75.1 µM in assay [6] and greater than 100 µM in assay [7].

As to `CCOC(C)C(/C=N/NC(N)=S)=NNC(N)=S` (stereo not drawn), the TGI in assay [1], in assay [8], in assay [9], in assay [3], in assay [4] and in assay [6] was greater than 100 µM throughout. In addition, the TGI in assay [7] was greater than 100 µM.

In the case of `[O-]c1c2c(nn1-c1ccccc1)c1ccccc1c[n+]2Cc1ccccc1`, the TGI in assay [1], in [8], in [2], in assay [9], in assay [3] and in assay [4] was greater than 100 µM each time. Moreover, the TGI in [5], in [6] and in assay [7] was greater than 100 µM throughout.

In the case of `Cc1ccc(NC(=O)C(=O)C2C(=O)N(c3ccccc3)N=C2N)cc1C` (stereo not drawn), the TGI in [1], in assay [8], in assay [2], in assay [3], in assay [4] and in assay [5] was greater than 100 µM throughout. For the same compound, the TGI in assay [6] and in [7] was greater than 100 µM each time.

As to `CN(C)CCNC(=O)c1cc2ccccc2c2nc3ccccc3nc12`, the TGI in assay [1] was 0.487 µM; in assay [8] it was 3.68 µM; in assay [2], 6.35 µM; in assay [9], 1.88 µM; in assay [3], greater than 31.6 µM; in [4], 2.06 µM. Also, the TGI in [6] was 7.37 µM; in [7] it was 2.89 µM.

For the compound `CC1=NN(c2ccccc2)C(=O)C1=C1SCCS1`, the TGI is greater than 100 µM in assay [1]; greater than 54.4 µM in assay [8]; greater than 100 µM in assay [2]; greater than 63.4 µM in [9]; greater than 100 µM in assay [3]; greater than 100 µM in assay [4]. Moreover, the TGI in assay [5], in [6] and in assay [7] was greater than 100 µM throughout.

In the case of `CC(=O)[CH-]C(=O)c1ccccc1.CC(=O)[CH-]C(=O)c1ccccc1.CC[O-].CC[O-].[Zr+4]`, the GI50 in [1], in assay [2], in assay [9], in assay [3], in assay [4] and in [5] was greater than 100 µM each time. The GI50 in assay [6] is 91.6 µM; in assay [7], greater than 100 µM. For the same compound, the TGI in assay [1], in [2], in [9], in assay [3], in [4] and in assay [5] was greater than 100 µM throughout. The TGI in [6] and in assay [7] was greater than 100 µM in each case.

Regarding `O=S(=O)(O)O.[NH-]C1CCCCC1[NH-].[Pt+2]` (stereo not drawn), the GI50 is 8.95 µM in assay [1]; greater than 100 µM in assay [2]; greater than 100 µM in assay [9]; greater than 100 µM in assay [3]; 50.2 µM in [4]; greater than 100 µM in [5]. Also, the GI50 in [6] and in assay [7] was greater than 100 µM each time. Also, the TGI in assay [1], in [2], in assay [9], in assay [3], in [4] and in assay [5] was greater than 100 µM each time. In addition, the TGI in [6] and in assay [7] was greater than 100 µM in each case.

Take `COc1cc(C2=NN(C)C(c3ccc([N+](=O)[O-])o3)C2)cc(OC)c1OC` (stereo not drawn): the TGI is greater than 100 µM in [1]; 38.6 µM in assay [8]; greater than 100 µM in assay [9]; greater than 100 µM in assay [3]; greater than 100 µM in [4]; greater than 100 µM in assay [5]. For the same compound, the TGI in [6] and in assay [7] was greater than 100 µM in each case.

Take `CC1(C)COC(C23C4C5C2C2C3C4C52I)=N1` (stereo not drawn): the TGI in assay [1], in assay [2], in [3], in assay [4], in assay [5] and in assay [6] was greater than 100 µM throughout.

In the case of `COC(=O)C1=C(O)c2cc(OC)c(OC)c(OC)c2[C@H](c2cc(OC)c(OC)c(OC)c2)C1C(=O)OC` (stereo partly drawn), the TGI in assay [1] was 68.3 µM; in [2], 58.4 µM; in assay [9], greater than 100 µM; in assay [3], greater than 100 µM; in [4], greater than 100 µM; in [5], greater than 100 µM. In addition, the TGI in assay [6] and in [7] was greater than 100 µM in each case.

`C/C(CC(=O)Nc1ccc(Cl)c(Cl)c1)=N/NC(=O)C[n+]1ccccc1`: the TGI in assay [1] is greater than 100 µM; in [8], 51.2 µM; in assay [2], greater than 100 µM; in [9], 37.1 µM; in [3] it was greater than 100 µM; in [4] it was greater than 100 µM. Also, the TGI in assay [5], in assay [6] and in assay [7] was greater than 100 µM in each case.

Turning to `Cc1ccc(NC(=O)CCC(CC(=O)C(C)(C)C)=NNC(=O)C(=O)NN)cc1C`, the TGI in assay [1], in assay [2], in [9], in assay [3], in [4] and in [5] was greater than 100 µM throughout. The TGI in [6] and in assay [7] was greater than 100 µM in each case.
